Laboratory results published in ChEMBL document CHEMBL3425466, “Light-switched inhibitors of protein tyrosine phosphatase PTP1B based on phosphonocarbonyl phenylalanine as photoactive phosphotyrosine mimetic” (Bioorg Med Chem, 2015).
The source made the active and inactive calls. No cut-off for these calls is given here. Numbered stars: 1 amine (or outer) side, 2 acyl side, 3 side chain; on linkers, the order of the positions; unused ones are H or OH. Square brackets hold non-standard residues; d marks the D form. Peptide text beside a SMILES is read from it. X1 = O=C(c1ccc(C[C@H](N[*:1])C(=O)[*:2])cc1)P(=O)(O)O

Experiments:
[1] = Photodimerization of the compound exposed to UV irradiation in presence of DTT; type: physicochemical
[2] = Photodimerization of the compound exposed to UV irradiation in presence of TEMPO radical; type: physicochemical
[3] = target: T1, Tyrosine-protein phosphatase non-receptor type 1 (Homo sapiens, UniProt P18031); assay: Inhibition of PTP1B catalytic domain (1 to 321 amino acids) (unknown origin) expressed in Escherichia coli Rosetta (DE3) incubated for 30 mins in absence of UV irradiation with 365 nm for 45 mins by pNPP assay
T1 sequence (P18031 whole entry): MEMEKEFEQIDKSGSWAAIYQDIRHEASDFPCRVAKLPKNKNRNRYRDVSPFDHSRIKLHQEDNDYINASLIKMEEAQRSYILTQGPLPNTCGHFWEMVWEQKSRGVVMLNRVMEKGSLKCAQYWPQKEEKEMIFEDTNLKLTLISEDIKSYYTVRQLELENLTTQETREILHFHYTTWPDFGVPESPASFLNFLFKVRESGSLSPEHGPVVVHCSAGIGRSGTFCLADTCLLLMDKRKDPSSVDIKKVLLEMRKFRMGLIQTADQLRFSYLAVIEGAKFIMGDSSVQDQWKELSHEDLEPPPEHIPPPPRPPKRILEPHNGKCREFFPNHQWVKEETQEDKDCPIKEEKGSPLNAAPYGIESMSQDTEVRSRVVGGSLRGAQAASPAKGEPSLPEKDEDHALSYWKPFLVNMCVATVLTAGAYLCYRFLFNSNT

[4] = target: T1, Tyrosine-protein phosphatase non-receptor type 1; assay: Inhibition of PTP1B catalytic domain (1 to 321 amino acids) (unknown origin) expressed in Escherichia coli Rosetta (DE3) incubated for 30 mins followed by UV irradiation with 365 nm for 45 mins by pNPP assay
[5] = target: T1, Tyrosine-protein phosphatase non-receptor type 1; assay: Inhibition of PTP1B catalytic domain (1 to 321 amino acids) (unknown origin) expressed in Escherichia coli Rosetta (DE3) incubated for 30 mins in absence of UV irradiation with 365 nm for 45 mins and in presence of 1 mM DTT by pNPP assay
[6] = target: T1, Tyrosine-protein phosphatase non-receptor type 1; assay: Inhibition of PTP1B catalytic domain (1 to 321 amino acids) (unknown origin) expressed in Escherichia coli Rosetta (DE3) incubated for 30 mins followed by UV irradiation with 365 nm for 45 mins in presence of 1 mM DTT by pNPP assay
[7] = target: T2, Tyrosine-protein phosphatase non-receptor type 1 (Homo sapiens) (UniProt P18031); settings: 35 uM
T2 sequence (whole entry): T1 sequence (P18031 whole entry)
Description: Inhibition of PTP1B catalytic domain (1 to 321 amino acids) (unknown origin) expressed in Escherichia coli Rosetta (DE3) at 35 uM incubated for 30 mins followed by UV irradiation with 365 nm for 45 mins in presence of 100 uM DTT by pNPP assay

[8] = target: T2, Tyrosine-protein phosphatase non-receptor type 1 (Homo sapiens); settings: 10 uM
Description: Inhibition of PTP1B catalytic domain (1 to 321 amino acids) (unknown origin) expressed in Escherichia coli Rosetta (DE3) at 10 uM incubated for 30 mins followed by UV irradiation with 365 nm for 45 mins by pNPP assay

[9] = target: T2, Tyrosine-protein phosphatase non-receptor type 1 (Homo sapiens); settings: 10 uM; remark: listed apart in the source
Description: Inhibition of PTP1B catalytic domain (1 to 321 amino acids) (unknown origin) expressed in Escherichia coli Rosetta (DE3) at 10 uM incubated for 30 mins followed by UV irradiation with 365 nm for 45 mins in presence of 1 mM DTT by pNPP assay

SMILES	Activity [1]	Activity [2]	Ki [3] [µM]	Ki [4] [µM]	Ki [5] [µM]	Ki [6] [µM]	inhibition [7]	inhibition [8]	inhibition [9]
Cc1ccc(C(=O)P(=O)(O)O)cc1	Not Active	Not Active	–	–	–	–	–	–	–
CC(=O)N[C@@H](CC(=O)O)C(=O)N[C@@H](C)C(=O)N[C@@H](CC(=O)O)C(=O)N[C@@H](CCC(=O)O)C(=O)N[C@@H](Cc1ccc(C(=O)P(=O)(O)O)cc1)C(=O)N[C@@H](CC(C)C)C(N)=O (Ac-DADE[X1]L-NH2)	–	–	30	0.39	17.3	12.9	inactive	–	–
CC[C@H](C)[C@H](NC(=O)[C@H](Cc1ccc(C(=O)P(=O)(O)O)cc1)NC(=O)[C@H](CC(N)=O)NC(C)=O)C(=O)N[C@@H](CC(=O)O)C(=O)N[C@@H](CC(C)C)C(=O)N[C@@H](CC(=O)O)C(N)=O (Ac-N[X1]IDLD-NH2)	–	–	48.8	0.41	–	–	–	Active	inactive
